Patent US8440637B2, “Combination treatment for the treatment of hepatitis C virus infection” (priority 2007, dated 2013)
l = locked nucleic acid (LNA); d = 2'-deoxy (DNA)

Legend:
miR-122a = miR-122a level in transfected Huh-7 cells by miR-122a specific qRT-PCR; type: cell-based, human; conditions: transfected at 1 and 100 nM, 24 hours after transfection
Protocol: The miR-122a expressing cell line Huh-7 was transfected with LNA anti-miR5 at 1 and 100 nM concentrations according to optimized lipofectamine 2000 (LF2000, Invitrogen) protocol (as follows).
Huh-7 cells were cultivated in Eagles MEM with 10% FBS, 2 mM Glutamax I, 1× non-essential amino acids, Gentamicin 25 μg/ml. The cells were seeded in 6-well plates (300000 cells per well), in a total vol. of 2.5 ml the day before transfection. At the day of transfection a solution containing LF2000 diluted in Optimem (Invitrogen) was prepared (1.2 ml optimem+3.75 μl LF2000 per well, final 2.5 μg LF2000/ml, final tot vol 1.5 ml).
LNA Oligonucleotides (LNA anti-miRs) were also diluted in optimem. 285 μl optimem+15 μl LNA oligonucleotide (10 μM oligonucleotide stock for final concentration 100 nM and 0.1 μM for final concentration 1 nM) Cells were washed once in optimem then the 1.2 ml optimem/LF2000 mix were added to each well. Cells were incubated 7 min at room temperature in the LF2000 mix where after the 300 μl oligonucleotide optimem solution was added. […]
miR-122a levels in the RNA samples were assessed on an ABI 7500 Fast real-time PCR instrument (Applied Biosystems, USA) using a miR-122a specific qRT-PCR kit, mirVana (Ambion, USA) and miR-122a primers (Ambion, USA). […]

[1] = mouse, in vivo
Protocol: (§1) C57BL/6J female mice were fed on high fat diet for 13 weeks before the initiation of the SEQ ID NO: 63 treatment. […] Both hypercholesterolemic and normal mice were treated i.p. twice weekly with 5 mg/kg SEQ ID NO: 63 and the corresponding mismatch control for a study period of 5½ weeks. Blood samples were collected weekly and total plasma cholesterol was measured during the entire course of the study. Upon sacrificing the mice, liver and blood samples were prepared for total RNA extraction, miRNA and mRNA quantification, assessment of the serum transaminase levels, and liver histology.
Serum from each individual mouse was prepared as follows: Blood samples were stored at room temperature for 2 h before centrifugation (10 min, 3000 rpm at room temperature). After centrifugation, serum was harvested and frozen at −20° C.
ALT and AST measurement was performed in 96-well plates using ALT and AST reagents from ABX Pentra according to the manufacturer's instructions. In short, serum samples were diluted 2.5 fold with H2O and each sample was assayed in duplicate. After addition of 50 μl diluted sample or standard (multical from ABX Pentra) to each well, 200 μl of 37° C. AST or ALT reagent mix was added to each well. Kinetic measurements were performed for 5 min with an interval of 30 s at 340 nm and 37° C. using a spectrophotometer.

miR-122 [2] = assay: Total plasma cholesterol in hypercholesterolemic and normal mice, long-term treatment; type: in vivo, mouse; conditions: 5 mg/kg i.p. twice weekly
Protocol: as §1
C57BL/6J female mice (Taconic M&B Laboratory Animals, Ejby, Denmark) were used. All substances were formulated in physiological saline (0.9% NaCl) to final concentration allowing the mice to receive an intraperitoneal injection volume of 10 ml/kg.
In the diet induced obesity study, the mice received a high fat (60EN %) diet (D12492, Research Diets) for 13 weeks to increase their blood cholesterol level before the dosing started. The dose regimen was stretched out to 5½ weeks of 5 mg/kg LNA-antimiR™ twice weekly. Blood plasma was collected once a week during the entire dosing period. After completion of the experiment the mice were sacrificed and RNA extracted from the livers for further analysis. Serum was also collected for analysis of liver enzymes.
Immediately before sacrifice retro-orbital sinus blood was collected in EDTA-coated tubes followed by isolation of the plasma fraction. Total plasma cholesterol was analysed using ABX Pentra Cholesterol CP (Horiba Group, Horiba ABX Diagnostics) according to the manufacturer's instructions.

miR-122 [3] = type: in vivo, mouse
Source text: Liver cryo-sections from treated animals were subjected to in situ hybridizations for detection and localization of miR-122 and SEQ ID NO: 61 (FIG. 14). A probe complementary to miR-122 could detect miR-122a. A second probe was complementary to SEQ ID NO: 61. Shown in FIG. 14 is an overlay, in green is distribution and apparent amounts of miR-122a and SEQ ID NO: 61 and blue is DAPI nuclear stain, at 10× magnification. 100× magnifications reveal the intracellular distribution of miR-122a and SEQ ID NO: 61 inside the mouse liver cells.

[4] = type: in vitro ADME; conditions: 96 h
Protocol: LNA oligonucleotide stability was tested in plasma from human or rats (it could also be mouse, monkey or dog plasma). In 45 μl plasma, 5 μl LNA oligonucleotide is added (at a final concentration of 20 μM). The LNA oligonucleotides are incubated in plasma for times ranging from 0 to 96 hours at 37° C.
At the indicated time the sample were snap frozen in liquid nitrogen. 2 μL (equals […]) LNA oligonucleotide in plasma was diluted by adding 15 μL of water and 3 μL 6× loading dye (Invitrogen). As marker a 10 bp ladder (Invitrogen, USA 10821-015) is used. To 1 μl ladder, 1 μl 6× loading and 4 μl water is added. The samples are mixed, heated to 65° C. for 10 min and loaded to a pre-run gel (16% acrylamide, 7 M UREA, 1×TBE, pre-run at 50 Watt for 1 h) and run at 50-60 Watt for […]. Subsequently, the gel is stained with 1× SyBR gold (molecular probes) in 1×TBE for 15 min. The bands were visualised using a phosphoimager from BioRad.
Stability of SEQ ID NO: 61 and SEQ ID NO: 61/miR-122a duplex were tested in mouse plasma at 37° C. over 96 hours. Shown in FIG. 12 is a SYBR-Gold stained PAGE.

5′-CcAttGTcaCaCtCC-3′ (antisense CCATTGTCACACTCC; sugars from the 5' end ldlddllddldldll, backbone and methylation of C not given here) [SEQ ID NO: 63]
inhibition of miR-122a (in words) (miR-122a): more efficient in inhibiting miR-122a at 1 nM | ALT level (in words) [1]: possibly elevated ALT level | alanine and aspartate aminotransferase (ALT and AST) levels compared to saline (in words) [1]: No changes | reduction of total plasma cholesterol compared to saline control (miR-122 [2]; hypercholesterolemic mice, after 10 days, sustained during the study): about 30% | effect on total plasma cholesterol (in words) (miR-122 [2]; normal diet mice): not as pronounced

5′-ccAttGtcAcaCtcCa-3′ (antisense CCATTGTCACACTCCA; sugars from the 5' end ddlddlddlddlddld, backbone and methylation of C not given here) [SEQ ID NO: 61]
miR-122 staining pattern in liver sections (in words) (miR-122 [3]; liver cryo-sections from treated mice versus saline): significantly reduced patchy staining pattern | intracellular distribution of the oligonucleotide in hepatocytes (in words) (miR-122 [3]; mouse, in vivo): evenly distributed in the entire cytoplasm | stability in mouse plasma (in words) [4]: completely stable over 96 hours
